{
  "source": "paper PMC3561363",
  "about": "“A Novel Retro-Inverso Peptide Inhibitor Reduces Amyloid Deposition, Oxidation and Inflammation and Stimulates Neurogenesis in the APPswe/PS1ΔE9 Mouse Model of Alzheimer’s Disease” (PLoS ONE, 2013)",
  "key": {"[1]": {"test_system": "AD patients", "settings": "cited from earlier work"}, "[2]": {"test_system": "Aβ42", "experiment": "Thioflavin T (ThT) assay for Aβ fibrils", "format": "biochemical", "settings": "ThT, 25 µM Aβ42, 48 h; figure title", "method": "This method was the same as that published previously. Briefly, 60 µl samples of solutions containing Aβ42 (25 µM), ThT (15 µM) and between 0 and 125 µM RI-OR2 or RI-OR2–TAT, in 10 mM phosphate buffered saline (PBS), pH 7.4, were incubated in sealed, black, clear-bottomed 384-well plates (Corning). ThT fluorescence was monitored every 10 mins (λex = 442 nm, λem = 483 nm) for 48 h at 30°C in a Biotek Synergy 2 plate reader."}, "[3]": {"target": "immobilized Aβ(1–42) (Aβ42) monomers, oligomers and fibrils", "parameters": "method as in PMID 20230062", "settings": "SPR; cited from earlier work"}, "[4]": {"test_system": "Aβ", "parameters": "method as in 2 sources, ref 16 = [16]; PMID 20230062; doi:10.1021/bi100144m; 16 Taylor M , Moore S , Mayes J , Parkin E , Beeg M , et al ( 2010 ) Development of a proteolytically stable retro-inverso peptide inhibitor of β-amyloid oligomerization as a potential novel treatment ||| ref 5, 52 = [5]; PMID 19605645; doi:10.1523/JNEUROSCI.1071-09.2009; 5 Ma QL , Yang F , Rosario ER , Ubeda OJ , Beech W , et al ( 2009 ) β-amyloid oligomers induce phosphorylation of tau and inactivation of insulin receptor substrate via c-Jun N-terminal kinase signali || [52]; PMID 15590663; doi:10.1074/jbc.M404751200; 52 Yang F , Lim GP , Begum AN , Ubeda OJ , Simmons MR , et al ( 2005 ) Curcumin inhibits formation of amyloid β oligomers and fibrils, binds plaques, and reduces amyloid in vivo . J Biol Chem 280 : 58", "settings": "cited from earlier work"}, "[5]": {"test_system": "cultured cells", "parameters": "method as in PMID 20230062", "settings": "cited from earlier work"}, "[6]": {"test_system": "Drosophila", "parameters": "method as in PMID 20559435", "settings": "cited from earlier work"}, "[7]": {"test_system": "soluble Aβ and β-amyloid plaque deposits in mice", "parameters": "method as in PMID 22323736", "settings": "oral administration, cited from earlier work"}, "[8]": {"test_system": "SHSY-5Y cells", "experiment": "Cell penetration of fluorescein-tagged peptides, microscopy", "settings": "1 µM"}, "[9]": {"test_system": "APP/PS1 transgenic mice", "experiment": "Blood brain barrier penetration and brain localisation after i.p. injection", "format": "in vivo, mouse", "settings": "100 nmol/kg i.p., 1 h, 17-month old APP/PS1 mice", "method": "APPswe/PS1ΔE9 mice with a C57Bl/6 background (APP/PS1 mice) were obtained from the Jackson lab (http://research.jax.org/repository/alzheimers.html). […] To look at the effects of RI-OR2-TAT on mouse brain pathology (experiment 2), 8 female 10-months-old APP/PS1 mice were used. The animals were housed in single cages in a temperature controlled holding room (21.5°C±1) with 12∶12 h light and dark cycle. Food and water was available ad libitum.\nThe animals were then housed in a dark room. After 1 h, the animals were anaesthetised with isoflurane and sodium barbiturate (Dolethal, Bayer, Germany), transcardially perfused and the brains were retrieved and fixed in 4% ice cold paraformaldehyde.\nFor experiment 1 (BBB penetration), individual sections were incubated with the following primary antibodies at 4°C overnight: anti-Aβ (1∶200 dilution, Invitrogen, 71–5800), or anti-Iba 1 (1∶1000 dilution, Wako 016-20001, Germany). Sections were then stained with goat anti-rabbit Alexa Fluor 555 (1∶150 dilution, A21428 Invitrogen) for 1 h.\nAll sections were visualized using an Axio Scope 1 fluorescence microscope (Zeiss, Germany). For quantification, two images per section were taken from the cortex area with a 10X objective for 8-oxo guanine and β-amyloid staining, and a 100X objective for Iba1 staining, with a minimum of 5 sections visualized per animal. […]"}, "[10]": {"parameters": "method as in earlier work", "settings": "no reference given; 53 concern derivatives; cited from earlier work"}},
  "note": "pKd: −log10 of the molar value.",
  "data": [
    {"compound": "AN1792: pre-aggregated Aβ42, first clinical trial of immunisation", "values": [
      {"measurement": "adverse effects in first clinical trial", "setting": "[1]; human, in vivo", "result": "adverse effects involving detrimental T-cell-mediated brain inflammation"}
    ]},
    {"compound": "Ac-rGffvlkGr-NH2 [RI-OR2]", "values": [
      {"measurement": "inhibition of Aβ42 aggregation (Fig. 1)", "setting": "[2]", "result": "inhibit the aggregation of Aβ42"},
      {"measurement": "pKd", "setting": "[3]", "result": "4.54 to 5.05"},
      {"measurement": "inhibition of Aβ oligomer and fibril formation in vitro", "setting": "[4]", "result": "blocks the formation of Aβ oligomers and fibrils in vitro"},
      {"measurement": "effect on Aβ toxicity to cultured cells", "setting": "[5]", "result": "inhibits the toxic effects of Aβ on cultured cells"}
    ]},
    {"compound": "O=C1C=C(N[C@@H](Cc2c[nH]c3ccccc23)C(=O)O)C(=O)c2ccccc21", "note": "[NQTrp, 1,4-naphthoquinon-2-yl-L-tryptophan]", "values": [
      {"measurement": "phenotypic changes in Drosophila AD model", "setting": "[6]", "result": "reversed phenotypic changes in Drosophila"}
    ]},
    {"compound": "C=C(c1ccc(C(=O)O)cc1)c1cc2c(cc1C)C(C)(C)CCC2(C)C", "note": "[bexarotene]", "values": [
      {"measurement": "clearance of soluble Aβ", "setting": "[7]; apoE-mediated mechanisms", "result": "enhance clearance of soluble Aβ"},
      {"measurement": "β-amyloid plaque deposits", "setting": "[7]", "result": "reduce β-amyloid plaque deposits in mice"}
    ]},
    {"compound": "fluorescein-rGffvlkGr-NH2 [Flu-RI-OR2]", "values": [
      {"measurement": "cell uptake (fluorescence localisation)", "setting": "[8]; 1 h", "result": "remained in the culture medium"}
    ]},
    {"compound": "fluorescein-rGffvlkGrrrrqrrkkrGy-NH2 [Flu-RI-OR2-TAT]", "values": [
      {"measurement": "localisation relative to activated microglia", "setting": "[9]; AlexaFluor 555 anti-Iba 1", "result": "found inside activated microglial cells"},
      {"measurement": "localisation relative to amyloid plaques", "setting": "[9]; cerebral cortex, AlexaFluor 555 anti-Aβ", "result": "co-localised with amyloid plaques"},
      {"measurement": "cell uptake (fluorescence localisation)", "setting": "[8]; 10 mins", "result": "build up of fluorescence inside the cells"}
    ]},
    {"compound": "COc1cc(/C=C/C(=O)CC(=O)/C=C/c2ccc(O)c(OC)c2)ccc1O", "note": "[curcumin, reference compound]", "values": [
      {"measurement": "inhibition of Aβ aggregation", "setting": "[4]", "result": "effective inhibitor of Aβ aggregation"},
      {"measurement": "bioavailability", "setting": "[10]", "result": "poor bioavailability"}
    ]},
    {"compound": "Solanezumab: Solanezumab (Eli Lilly)", "values": [
      {"measurement": "Phase III trial outcome", "setting": "[1]; mild-to-moderate AD, ref presented at CTAD 2012", "result": "did not achieve key Phase III trial goals of improved cognition and function"}
    ]}
  ]
}
